Key:
Mus musculus [1] = test: Toxicity in Swiss mouse assessed as neurobiological state and occurrence of xerostomia at 30 mg/kg, ip up to 24 hrs; format: organism-based; set-up: dose 30 mg/kg, route intraperitoneal; conditions: in vivo
[2] = molecular target: T1, Muscarinic acetylcholine receptor M3 (Homo sapiens, UniProt P20309); test: Displacement of [3H]NMS from human muscarinic M3 receptor expressed in CHOK1 cells by microplate scintillation counting; format: cell-based, CHO-K1
Cavia porcellus [3] = test: Inhibition of acetylcholine-induced bronchoconstriction in Dunkin-Hartley guinea pig assessed as time taken to recover 50% of maximum inhibitory effect at 3 mg/mL administered as nebulized solution; format: functional
[4] = molecular target: T2, Muscarinic acetylcholine receptor M2 (Homo sapiens, UniProt P08172); test: Displacement of [3H]NMS from human muscarinic M2 receptor expressed in CHOK1 cells by microplate scintillation counting; format: cell-based, CHO-K1
T2 sequence (P08172 whole entry): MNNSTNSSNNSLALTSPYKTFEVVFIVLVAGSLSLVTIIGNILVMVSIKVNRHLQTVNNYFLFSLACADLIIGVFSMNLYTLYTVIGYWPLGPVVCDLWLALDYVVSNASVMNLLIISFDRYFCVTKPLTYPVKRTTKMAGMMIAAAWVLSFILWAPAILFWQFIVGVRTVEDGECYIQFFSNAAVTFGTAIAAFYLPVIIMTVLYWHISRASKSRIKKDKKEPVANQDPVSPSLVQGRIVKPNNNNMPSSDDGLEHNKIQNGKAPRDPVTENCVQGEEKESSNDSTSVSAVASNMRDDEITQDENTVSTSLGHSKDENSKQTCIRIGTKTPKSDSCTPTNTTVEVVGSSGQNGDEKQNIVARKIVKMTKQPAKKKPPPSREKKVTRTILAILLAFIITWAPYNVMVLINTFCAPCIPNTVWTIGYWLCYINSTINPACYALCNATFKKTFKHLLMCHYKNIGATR

[5] = molecular target: T3, Muscarinic acetylcholine receptor M1 (Homo sapiens, UniProt P11229); test: Displacement of [3H]NMS from human muscarinic M1 receptor expressed in CHOK1 cells by microplate scintillation counting; format: cell-based, CHO-K1
T3 sequence (P11229 whole entry): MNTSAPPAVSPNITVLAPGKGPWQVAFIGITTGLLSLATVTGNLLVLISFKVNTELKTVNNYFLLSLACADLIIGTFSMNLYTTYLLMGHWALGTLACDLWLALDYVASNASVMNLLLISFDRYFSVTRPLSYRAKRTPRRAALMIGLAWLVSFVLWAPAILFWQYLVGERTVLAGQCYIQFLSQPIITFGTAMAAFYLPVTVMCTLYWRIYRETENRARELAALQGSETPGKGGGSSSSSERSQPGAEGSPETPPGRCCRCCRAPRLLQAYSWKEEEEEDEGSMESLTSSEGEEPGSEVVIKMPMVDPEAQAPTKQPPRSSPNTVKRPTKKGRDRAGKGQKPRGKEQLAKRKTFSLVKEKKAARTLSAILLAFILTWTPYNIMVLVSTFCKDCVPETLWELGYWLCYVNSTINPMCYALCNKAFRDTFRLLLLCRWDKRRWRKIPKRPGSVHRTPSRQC

Mus musculus [6] = test: Toxicity in Swiss mouse assessed as occurrence of mydriasis at 30 mg/kg, ip up to 24 hrs; format: organism-based; set-up: dose 30 mg/kg, route intraperitoneal; conditions: in vivo
[7] = molecular target: T2, Muscarinic acetylcholine receptor M2; test: Binding affinity to muscarinic M2 receptor
[8] = molecular target: T1, Muscarinic acetylcholine receptor M3
Description: Binding affinity to muscarinic M3 receptor

[9] = molecular target: T3, Muscarinic acetylcholine receptor M1; test: Binding affinity to muscarinic M1 receptor
Cavia porcellus [10] = test: Inhibition of acetylcholine-induced bronchoconstriction in Dunkin-Hartley guinea pig assessed as time taken to recover 50% of maximum inhibitory effect at 1 mg/mL administered as nebulized solution; format: functional
[11] = Metabolic stability in human plasma assessed as elimination half life at pH 7.4; format: ADME, cell-free; conditions: read-out: beta t1/2
[12] = Chemical stability assessed as half life at pH 7.4 by UV-HPLC analysis; format: physicochemical; conditions: buffer
Cavia porcellus [13] = test: Inhibition of acetylcholine-induced bronchoconstriction in Dunkin-Hartley guinea pig assessed as time taken to recover 50% of maximum inhibitory effect at 1 mg/mL administered as nebulized solution
Cavia porcellus [14] = test: Inhibition of acetylcholine-induced bronchoconstriction in Dunkin-Hartley guinea pig administered as nebulized solution; format: functional, organism-based

T1 sequence (P20309 whole entry): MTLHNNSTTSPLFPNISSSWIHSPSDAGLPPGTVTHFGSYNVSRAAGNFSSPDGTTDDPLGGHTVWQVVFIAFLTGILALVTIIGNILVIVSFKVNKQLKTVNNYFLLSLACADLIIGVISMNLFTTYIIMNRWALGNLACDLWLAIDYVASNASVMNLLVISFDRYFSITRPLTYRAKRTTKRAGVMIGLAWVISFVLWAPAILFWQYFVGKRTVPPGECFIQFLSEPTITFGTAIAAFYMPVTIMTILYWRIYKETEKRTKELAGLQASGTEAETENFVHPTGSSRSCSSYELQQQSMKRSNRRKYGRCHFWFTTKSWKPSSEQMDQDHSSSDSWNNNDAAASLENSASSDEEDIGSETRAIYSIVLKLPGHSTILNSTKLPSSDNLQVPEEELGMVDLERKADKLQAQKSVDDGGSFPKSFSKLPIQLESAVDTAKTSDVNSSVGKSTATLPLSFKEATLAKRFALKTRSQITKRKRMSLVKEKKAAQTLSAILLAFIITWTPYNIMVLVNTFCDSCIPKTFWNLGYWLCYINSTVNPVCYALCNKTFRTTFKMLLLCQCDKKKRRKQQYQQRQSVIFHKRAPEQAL

Structure (SMILES) | Activity (Mus musculus [1]) | IC50 [2] | IC50 [4] | IC50 [5] | Time (Cavia porcellus [10]) | other results
O=C(O[C@H]1C[N+]2(CCCOc3ccccc3)CCC1CC2)[C@@](O)(c1cccs1)C1CCCC1.[Br-] | Non-toxic | 1.62 nM | 1.01 nM | 0.81 nM | – | Time (Cavia porcellus [3]): >6 h
O=C(O[C@H]1C[N+]2(CCCOc3ccccc3)CCC1CC2)C1(O)c2ccccc2-c2ccccc21.[Br-] | Non-toxic | 0.71 nM | 1.08 nM | 0.63 nM | – | Time (Cavia porcellus [3]): >6 h
CC1(C(=O)O[C@H]2C[N+]3(CCCOc4ccccc4)CCC2CC3)c2ccccc2-c2ccccc21.[Br-] | Non-toxic | 0.96 nM | 2.1 nM | 1.26 nM | – | –
O=C(O[C@H]1C[N+]2(CCCOc3ccccc3)CCC1CC2)[C@](O)(c1cccs1)C1CCCC1.[Br-] | Non-toxic | 0.18 nM | 0.14 nM | 0.15 nM | >6 h | Activity (Mus musculus [6]): Toxic; Ki [7]: 0.06 nM; Time (Cavia porcellus [3]): >6 h; Ki [8]: 0.07 nM; Ki [9]: 0.09 nM; half-life [11]: > 60 min; half-life [12]: > 60 min
O=C(O[C@H]1C[N+]2(CCc3ccccc3)CCC1CC2)C1c2ccccc2Oc2ccccc21.[Br-] | Non-toxic | 0.31 nM | 1.82 nM | 0.44 nM | >6 h | –
O=C(O[C@H]1C[N+]2(CCc3ccccc3)CCC1CC2)C1(O)c2ccccc2Oc2ccccc21.[Br-] | Non-toxic | 0.28 nM | 0.54 nM | 0.29 nM | >6 h | –
O=C(O[C@H]1C[N+]2(CCc3ccccc3)CCC1CC2)C1(O)c2ccccc2-c2ccccc21.[Br-] | Non-toxic | 1.04 nM | 2.24 nM | 1.12 nM | >6 h | –
O=C(O[C@H]1C[N+]2(CCCOc3ccccc3)CCC1CC2)C1(O)c2ccccc2Oc2ccccc21.[Br-] | Non-toxic | 1.04 nM | 0.36 nM | 0.23 nM | >6 h | –
O=C(O[C@H]1C[N+]2(CCCOc3ccccc3)CCC1CC2)[C@@](O)(c1ccccc1)c1cccs1.[Br-] | Non-toxic | 0.25 nM | 0.17 nM | 0.16 nM | – | –
O=C(O[C@H]1C[N+]2(CCCCc3ccccc3)CCC1CC2)C(O)(c1cccs1)c1cccs1.[Br-] | Non-toxic | 0.45 nM | 0.38 nM | 0.29 nM | 6 h | Time (Cavia porcellus [3]): 6 h
O=C(O[C@H]1C[N+]2(CCCOc3ccccc3)CCC1CC2)C(O)(c1ccccc1)c1ccccc1.[Br-] | Non-toxic | – | – | 0.31 nM | – | Time (Cavia porcellus [3]): >6 h
CC1(C(=O)O[C@H]2C[N+]3(CCCOc4ccccc4)CCC2CC3)c2ccccc2Oc2ccccc21.[Br-] | Non-toxic | – | 0.27 nM | 0.28 nM | – | –
O=C(O[C@H]1C[N+]2(CCCOc3ccccc3)CCC1CC2)[C@](O)(c1ccccc1)c1cccs1.[Br-] | Non-toxic | 0.48 nM | 0.31 nM | 0.38 nM | – | –
O=C(O[C@H]1C[N+]2(CCCOc3ccccc3)CCC1CC2)C(O)(c1cccs1)c1cccs1.[Br-] [ACLIDINIUM BROMIDE] | Non-toxic | – | – | 0.14 nM | >6 h | Activity (Mus musculus [6]): Non-toxic; Time (Cavia porcellus [13]): >6 h; IC50 (Cavia porcellus [14]): 140 µg/mL; Ki [9]: 0.08 nM; half-life [11]: 2.2 min; half-life [12]: 60 min
O=C(O[C@H]1C[N+]2(CCCOc3ccccc3)CCC1CC2)C(c1cccs1)c1cccs1.[Br-] | Non-toxic | 0.37 nM | 0.35 nM | 0.34 nM | – | –
O=C(O[C@H]1C[N+]2(CCCOc3ccccc3)CCC1CC2)C(O)(c1ccsc1)c1ccsc1.[Br-] | Non-toxic | 0.24 nM | 0.18 nM | 0.23 nM | – | –
CC(C(=O)O[C@H]1C[N+]2(CCCOc3ccccc3)CCC1CC2)(c1cccs1)c1cccs1.[Br-] | Non-toxic | 0.59 nM | 0.73 nM | 0.6 nM | – | –
CC(C)[N+]1(C)C2CCC1CC(OC(=O)C(CO)c1ccccc1)C2.O.[Br-] (stereo unspecified) | – | – | – | – | – | Activity (Mus musculus [6]): Toxic
C[N+]1(C)[C@@H]2C[C@@H](OC(=O)C(O)(c3cccs3)c3cccs3)C[C@H]1[C@@H]1O[C@@H]12.O.[Br-] [TIOTROPIUM BROMIDE] | – | – | – | – | >6 h | Activity (Mus musculus [6]): Toxic; IC50 (Cavia porcellus [14]): 45 µg/mL

Reference: ChEMBL document CHEMBL1152978 (J Med Chem, 2009)
